In data set [1] the target is Kappa-type opioid receptor (Homo sapiens, UniProt P41145). The experiment in a line: Agonist activity at kappa opioid receptor. The class given is functional.
The next data set has as its target T1, Urotensin-2 receptor (Homo sapiens, UniProt Q9UKP6).
T1 sequence (Q9UKP6 whole entry): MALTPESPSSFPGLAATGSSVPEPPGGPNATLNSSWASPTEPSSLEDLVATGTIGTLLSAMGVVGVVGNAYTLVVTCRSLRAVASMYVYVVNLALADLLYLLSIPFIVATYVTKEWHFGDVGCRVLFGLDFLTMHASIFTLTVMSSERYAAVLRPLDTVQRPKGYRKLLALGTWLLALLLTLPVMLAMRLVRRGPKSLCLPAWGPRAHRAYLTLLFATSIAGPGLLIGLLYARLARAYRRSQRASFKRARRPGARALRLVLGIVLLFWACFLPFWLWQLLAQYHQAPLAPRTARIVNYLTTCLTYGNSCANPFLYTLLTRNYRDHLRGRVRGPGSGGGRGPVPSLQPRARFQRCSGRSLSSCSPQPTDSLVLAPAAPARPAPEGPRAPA
Briefly: Binding affinity to human urotensin-2 receptor.

The next data set deals with Cytochrome P450 2D6 (Homo sapiens, UniProt P10635). The experiment in a line: Inhibition of CYP2D6. The class given is ADME.
A further data set deals with Cytochrome P450 3A4 (Homo sapiens, UniProt P08684). The experiment in a line: Inhibition of CYP3A4. The class given is ADME.
The species entered for another data set is Rattus norvegicus. The experiment in a line: (§1) Binding affinity to batrachotoxinin-sensitive rat brain sodium channel.
The nature of data set [2]: Half life in rat at 2 mg/kg, iv and 4 mg/kg, po. Particulars: in vivo. The class given is ADME, organism-based.
The nature of data set [3]: Clearance in rat at 2 mg/kg, iv and 4 mg/kg, po. The class given is ADME, organism-based. Particulars: in vivo.
The nature of data set [4]: Volume of distribution at steady state in rat at 2 mg/kg, iv and 4 mg/kg, po. The class given is ADME, organism-based. The following applies: in vivo, read-out: Vdss.
Data set [5] in a line: Oral bioavailability in rat at 4 mg/kg. The following applies: in vivo. The class given is ADME, organism-based.
The nature of data set [6]: as §1.
A short description of data set [7]: Cmax in rat at 2 mg/kg, iv and 4 mg/kg, po. The class given is ADME, organism-based. Particulars: in vivo.
A further data set deals with Aorta. The experiment in a line: Inhibition of contraction in isolated rat aorta. The class given is functional.

Broadly, the EC50 is the concentration giving half of the maximal effect. High values mean a need for much substance, low ones an effect from little substance. The term Ki denotes a measure of affinity in units of concentration, obtained from inhibition or displacement. Usually IC50 stands for the concentration needed to halve the response being measured. Low readings indicate inhibition by little substance, high ones a need for much substance. The term half-life denotes the time in which the quantity being followed falls by half. One may read the bioavailability as the share of a dose that reaches the circulation, judged against a reference dose that is usually intravenous. A lower bioavailability goes with little systemic uptake. As a reminder, the Cmax is the peak of the concentration-time curve.

Active and inactive are the calls of the source. No cut-off for these calls is given here. A value given as a limit tells only on which side of the number the result lay.

Chain of Kappa-type opioid receptor (P41145 whole entry): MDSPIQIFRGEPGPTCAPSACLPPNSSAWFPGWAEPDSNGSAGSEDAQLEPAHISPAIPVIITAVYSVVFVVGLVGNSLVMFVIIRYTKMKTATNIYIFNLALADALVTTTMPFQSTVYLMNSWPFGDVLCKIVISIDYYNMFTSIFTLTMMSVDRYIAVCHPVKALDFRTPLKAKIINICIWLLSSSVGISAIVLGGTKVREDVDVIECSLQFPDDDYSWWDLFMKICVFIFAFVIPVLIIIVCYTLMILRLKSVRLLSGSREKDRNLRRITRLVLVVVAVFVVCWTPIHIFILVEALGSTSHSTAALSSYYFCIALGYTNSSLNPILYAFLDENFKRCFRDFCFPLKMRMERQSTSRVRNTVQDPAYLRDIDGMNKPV
Chain of Cytochrome P450 3A4 (P08684 whole entry): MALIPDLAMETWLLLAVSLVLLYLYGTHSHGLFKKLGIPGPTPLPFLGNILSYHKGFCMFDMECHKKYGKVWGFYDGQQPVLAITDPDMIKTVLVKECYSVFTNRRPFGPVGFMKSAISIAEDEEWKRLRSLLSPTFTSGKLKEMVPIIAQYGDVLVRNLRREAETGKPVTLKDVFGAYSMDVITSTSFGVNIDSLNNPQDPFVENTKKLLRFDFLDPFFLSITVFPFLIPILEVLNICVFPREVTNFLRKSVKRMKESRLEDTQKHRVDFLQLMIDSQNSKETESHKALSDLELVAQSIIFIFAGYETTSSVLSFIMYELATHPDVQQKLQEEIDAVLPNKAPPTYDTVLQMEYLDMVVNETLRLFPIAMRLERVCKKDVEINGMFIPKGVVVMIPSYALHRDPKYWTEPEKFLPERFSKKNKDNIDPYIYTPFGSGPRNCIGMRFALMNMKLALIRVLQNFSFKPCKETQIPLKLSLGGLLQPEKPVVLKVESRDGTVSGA
Chain of Cytochrome P450 2D6 (P10635 whole entry): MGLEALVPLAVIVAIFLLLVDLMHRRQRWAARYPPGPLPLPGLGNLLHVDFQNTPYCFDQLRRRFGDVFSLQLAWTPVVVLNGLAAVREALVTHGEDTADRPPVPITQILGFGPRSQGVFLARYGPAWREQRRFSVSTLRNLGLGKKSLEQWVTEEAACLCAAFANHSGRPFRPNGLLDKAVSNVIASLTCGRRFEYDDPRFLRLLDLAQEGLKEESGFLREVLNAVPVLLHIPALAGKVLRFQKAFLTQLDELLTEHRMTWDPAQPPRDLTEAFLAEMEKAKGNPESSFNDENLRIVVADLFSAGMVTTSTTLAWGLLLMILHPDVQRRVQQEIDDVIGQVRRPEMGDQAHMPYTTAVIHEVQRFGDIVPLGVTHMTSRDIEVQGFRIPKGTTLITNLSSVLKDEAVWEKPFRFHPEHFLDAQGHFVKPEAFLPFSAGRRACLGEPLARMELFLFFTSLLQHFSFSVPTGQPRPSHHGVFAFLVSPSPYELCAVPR

Consider `CN(CC(=O)N(C)C(CN1CCCC1)c1ccccc1)c1ccc(Cl)c(Cl)c1` (racemic), for which the midpoint of the response in data set [1], the EC50, lay at 0.0002 µM. Also, the Ki at Urotensin-2 receptor was determined as 0.015 µM. Moreover, the values for the IC50 at Cytochrome P450 2D6 and against Cytochrome P450 3A4 were 0.16 µM and 3.3 µM, respectively. For the same molecule, the result in the data set filed under Rattus norvegicus was inactive.

In data set [2], `CNC(=O)c1cccc(-c2ccc(C(CN3CCOCC3)N(C)C(=O)Cn3c(=O)cnc4cc(C)c(C)cc43)cc2)c1` (centres undefined) gave a half-life of 1 h. Moreover, in data set [3], the clearance was 60 mL/min/kg. Further, a half-maximal response in data set [1] (EC50) required 4 µM. In data set [4], the Vd came out at 1.7 L/kg. Besides, the Ki came to 0.006 µM on Urotensin-2 receptor and 30 µM in [6]. Also, the figures for the IC50 on Cytochrome P450 2D6 and on Cytochrome P450 3A4 were 33 µM and 9 µM, respectively. In data set [5], this molecule yielded a bioavailability of 39%.

Take `COCCN(CC(=O)N(C)C(CN1CCCC1)c1ccc(-c2ccc(C(N)=O)cc2)cc1)c1ccc(Cl)c(Cl)c1` (centres undefined): the EC50 in [1] came out at 0.1 µM. The Ki is 0.003 µM at Urotensin-2 receptor and 17 µM in [6]. The IC50 against Cytochrome P450 2D6 amounted to 6.2 µM; at Cytochrome P450 3A4, 2.6 µM.

In data set [1], `CN(CC(=O)N1CCC[C@@H](c2ccccc2)[C@H]1CN1CCCC1)c1ccc(Cl)c(Cl)c1` returned an EC50 of 2 µM.

In the case of `CN(CC(=O)N(C)C(CN1CCCC1)c1ccc(-c2ccccc2)cc1)c1ccc(Cl)c(Cl)c1` (centres undefined), in data set [1], it took 0.016 µM to reach a half-maximal effect (EC50). The Ki on Urotensin-2 receptor stood at 0.02 µM; in [6], 1.2 µM. In addition, the values for the IC50 on Cytochrome P450 2D6 and at Cytochrome P450 3A4 were 5.9 µM and 4.9 µM, respectively.

Consider `CN(C(=O)CN1C(=O)COc2cc(Cl)c(Cl)cc21)[C@H](CN1CCOCC1)c1ccc(-c2ccccc2)cc1`, for which, in data set [2], the half-life was 2.6 h. Moreover, the clearance in [3] turned out to be 130 mL/min/kg. The EC50 in data set [1] came to 0.04 µM. Besides, in data set [4], the Vd was found to be 19 L/kg. The same molecule gave a Cmax in [7] of 230 ng/mL. Moreover, the Ki was 0.63 µM at Urotensin-2 receptor and 9.4 µM in data set [6]. In addition, the values for the concentration for half-maximal inhibition (IC50) on Cytochrome P450 2D6 and against Cytochrome P450 3A4 were 33 µM and 4.2 µM, respectively. Besides, in data set [5], the bioavailability came out at 17%.

On to `CN(CC(=O)N1CCCC(c2ccccc2)C1CN1CCCC1)c1ccc(Cl)c(Cl)c1` (racemic), for which, in [6], the Ki came to 2.5 µM.

With `CC(=O)Nc1ccc(-c2ccc(C(CN3CCOCC3)N(C)C(=O)CN3C(=O)COc4cc(C)c(C)cc43)cc2)cc1` (centres undefined), in data set [2], the half-life was 1.7 h. In [3], this molecule had a clearance of 94 mL/min/kg. In data set [1], this molecule showed an EC50 of 0.8 µM. The Vd in data set [4] worked out at 2.8 L/kg. The same molecule yielded a Cmax in data set [7] of 600 ng/mL. In addition, the Ki on Urotensin-2 receptor worked out at 0.003 µM; in data set [6], 30 µM. Moreover, the IC50 is 30 µM at Cytochrome P450 2D6 and 6.4 µM on Cytochrome P450 3A4. This molecule gave a bioavailability in data set [5] of 83%.

The molecule `CN(CC(=O)N(C)C(CN1CCOCC1)c1ccc(-c2ccccc2)cc1)c1ccc(Cl)c(Cl)c1` (centres undefined) returned an EC50 in [1] of 1.6 µM. Also, the figures for the inhibition constant (Ki) (on Urotensin-2 receptor; in [6]) were 0.63 µM and > 300 µM, respectively. Besides, the figures for the IC50 on Cytochrome P450 2D6 and on Cytochrome P450 3A4 were 16 µM and 2.1 µM, respectively.

In the case of `CN(CC(=O)N(C)[C@@H](CN1CCCC1)c1ccccc1)c1ccc(Cl)c(Cl)c1`, the EC50 in data set [1] turned out to be 0.004 µM. Moreover, the Ki came to 0.013 µM at Urotensin-2 receptor and 2 µM in [6].

The molecule `CN(CC(=O)N1CCC[C@H](c2ccccc2)[C@@H]1CN1CCCC1)c1ccc(Cl)c(Cl)c1` showed an EC50 in [1] of 6.3 µM. The molecule also came in with a Ki on Urotensin-2 receptor of 0.006 µM.

In turn, `CN(C(=O)CN1C(=O)COc2cc(Cl)c(Cl)cc21)[C@@H](CN1CCOCC1)c1ccc(-c2ccccc2)cc1` showed a half-life in data set [2] of 2.2 h. For the same molecule, the clearance in [3] is 120 mL/min/kg. In data set [1], this molecule returned an EC50 of 0.8 µM. The Vd in [4] stood at 11 L/kg. Further, the Cmax in [7] was 200 ng/mL. Moreover, the Ki on Urotensin-2 receptor was 0.016 µM; in [6], 7.7 µM. Further, the concentration for half-maximal inhibition (IC50) against Cytochrome P450 2D6 was 33 µM; against Cytochrome P450 3A4 it was 9.1 µM. Moreover, the bioavailability in [5] amounted to 43%.

At Urotensin-2 receptor, `CN(C(=O)Cc1ccc(Cl)c(Cl)c1)[C@H](CN1CCCC1)c1ccccc1` [ICI-199,441] came in with a Ki of 4 µM.

As to `CN(C(=O)CN1C(=O)COc2cc(Cl)c(Cl)cc21)C(CN1CCOCC1)c1ccc(-c2ccccc2)cc1` (racemic), in data set [2], the half-life is 2.4 h. Also, the clearance in data set [3] worked out at 150 mL/min/kg. Moreover, the response in data set [1] was half-maximal at 0.32 µM (EC50). The Vd in [4] turned out to be 23 L/kg. This molecule also yielded a Cmax in [7] of 160 ng/mL. Moreover, the inhibition constant (Ki) on Urotensin-2 receptor is 0.013 µM; in [6], 11.1 µM. Further, the IC50 was 33 µM against Cytochrome P450 2D6 and 4.6 µM against Cytochrome P450 3A4.

In turn, `CN(CC(=O)N(C)[C@H](CN1CCCC1)c1ccccc1)c1ccc(Cl)c(Cl)c1` showed an EC50 in data set [1] of 0.0001 µM. Also, on Urotensin-2 receptor, the Ki turned out to be 2.5 µM.

`COc1cccc(-c2ccc(C(CN3CCOCC3)N(C)C(=O)CN3C(=O)COc4cc(Cl)c(Cl)cc43)cc2)c1` (centres undefined) gave a half-life in data set [2] of 3.4 h. The molecule further had a clearance in data set [3] of 140 mL/min/kg. This molecule had an EC50 in [1] of 0.16 µM. Also, the Vd in data set [4] turned out to be 20 L/kg. In addition, in data set [7], the Cmax was determined as 290 ng/mL. This molecule came in with a Kb in the data set with Aorta of 0.021 µM. The Ki was determined as 0.005 µM at Urotensin-2 receptor and 22 µM in data set [6]. For the same molecule, the IC50 at Cytochrome P450 2D6 came to 17 µM; against Cytochrome P450 3A4, 1 µM. Also, the bioavailability in data set [5] was found to be 30%.

In turn, `CN(C(=O)CN(CC#N)c1ccc(Cl)c(Cl)c1)C(CN1CCCC1)c1ccc(-c2cccc(C(N)=O)c2)cc1` (centres undefined) gave a half-life in [2] of 3.4 h. Moreover, the clearance in data set [3] amounted to 100 mL/min/kg. Also, the EC50 in data set [1] turned out to be 0.032 µM. Moreover, the Vd in data set [4] worked out at 20 L/kg. Besides, the concentration in data set [7] peaked (Cmax) at 340 ng/mL. Besides, the Ki amounted to 0.0003 µM at Urotensin-2 receptor and 22 µM in [6]. For the same molecule, the IC50 against Cytochrome P450 2D6 was 3.5 µM; on Cytochrome P450 3A4, 2.2 µM. The bioavailability in data set [5] was determined as 36%.

`CNC(=O)c1cccc(-c2ccc(C(CN3CCOCC3)N(C)C(=O)Cn3c(=O)cnc4cc(Cl)c(Cl)cc43)cc2)c1` (centres undefined): the half-life in [2] was 1.5 h. The same molecule had a clearance in [3] of 36 mL/min/kg. The EC50 in data set [1] was found to be 2 µM. Further, the Vd in [4] was determined as 2 L/kg. In data set [7], this molecule registered a Cmax of 1100 ng/mL. The figures for the Ki (at Urotensin-2 receptor; in [6]) were 0.004 µM and 30 µM, respectively. The IC50 on Cytochrome P450 2D6 was determined as 33 µM; against Cytochrome P450 3A4 it was 5 µM. Besides, in data set [5], the bioavailability was 29%.

These data come from ChEMBL document CHEMBL1157450, “Potent and selective small-molecule human urotensin-II antagonists with improved pharmacokinetic profiles” (Bioorg Med Chem Lett, 2008).
